Measurements reported in the supplement of paper PMC12350171.

Key:
[1] = system: Streptococcus salivarius; experiment: IC25 growth inhibition; higher = less potent
Summary of the method: (§1)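 Under anaerobic conditions, OD578 was read hourly in a plate reader for at least three biological replicates of monocultures grown overnight in mGAM. Each culture started at an OD578 of 0.01 in pre-reduced plates holding twofold drug dilutions and 1% DMSO (or water). IC25 was reported as a tested interval: the lowest concentration where the monotonic median area under the growth curve dropped below the cutoff. That cutoff was 0.75.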

[2] = system: Streptococcus parasanguinis; experiment: IC25 growth inhibition; higher = less potent
Summary of the method: as §1

[3] = system: Bacteroides uniformis; experiment: IC25 growth inhibition; higher = less potent
Summary of the method: as §1

[4] = system: Coprococcus comes; experiment: IC25 growth inhibition; higher = less potent
Summary of the method: as §1

[5] = system: Clostridium saccharolyticum; experiment: IC25 growth inhibition; higher = less potent
Summary of the method: as §1

[6] = system: Clostridium perfringens; experiment: IC25 growth inhibition; higher = less potent
Summary of the method: as §1

[7] = system: Yersinia enterocolitica WA-314; experiment: IC25 growth inhibition; higher = less potent
Summary of the method: as §1

[8] = system: Bacteroides vulgatus; experiment: IC25 growth inhibition; higher = less potent
Summary of the method: as §1

[9] = system: Ruminococcus gnavus; experiment: IC25 growth inhibition; higher = less potent
Summary of the method: as §1

[10] = system: Clostridium bolteae; experiment: IC25 growth inhibition; higher = less potent
Summary of the method: as §1

[11] = system: Clostridium ramosum; experiment: IC25 growth inhibition; higher = less potent
Summary of the method: as §1

[12] = system: Roseburia intestinalis; experiment: IC25 growth inhibition; higher = less potent
Summary of the method: as §1

[13] = system: Yersinia pseudotuberculosis; experiment: IC25 growth inhibition; higher = less potent
Summary of the method: as §1

[14] = system: Escherichia coli ED1a; experiment: IC25 growth inhibition; higher = less potent
Summary of the method: as §1

[15] = system: Fusobacterium nucleatum subsp. Nucleatum; experiment: IC25 growth inhibition; higher = less potent
Summary of the method: as §1

[16] = system: Parabacteroides merdae; experiment: IC25 growth inhibition; higher = less potent
Summary of the method: as §1

[17] = system: Eubacterium rectale; experiment: IC25 growth inhibition; higher = less potent
Summary of the method: as §1

[18] = system: Shigella flexneri; experiment: IC25 growth inhibition; higher = less potent
Summary of the method: as §1

[19] = system: Bacteroides fragilis NT; experiment: IC25 growth inhibition; higher = less potent
Summary of the method: as §1

[20] = system: Bacteroides thetaiotaomicron; experiment: IC25 growth inhibition; higher = less potent
Summary of the method: as §1

[21] = system: Dorea formicigenerans; experiment: IC25 growth inhibition; higher = less potent
Summary of the method: as §1

[22] = system: Collinsella aerofaciens; experiment: IC25 growth inhibition; higher = less potent
Summary of the method: as §1

[23] = system: Salmonella enterica typhimurium; experiment: IC25 growth inhibition; higher = less potent
Summary of the method: as §1

[24] = system: Vibrio cholerae; experiment: IC25 growth inhibition; higher = less potent
Summary of the method: as §1

[25] = system: Com21 synthetic gut community; experiment: community biomass OD578 after 24 h drug treatment relative to untreated (fraction of untreated control); higher = more community growth; conditions: community: Com21 (Com20 + E. coli ED1a)
Method: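 Com21 (Com20 plus E. coli ED1a) was treated with drug for 24 h under anaerobic conditions in mGAM. Community OD578 was then measured and normalised to untreated Com21; mean of 3 biological replicates.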

[26] = drug pretreatment concentration 2.5 µM
[27] = drug pretreatment concentration 5 µM
[28] = drug pretreatment concentration 10 µM
[29] = drug pretreatment concentration 20 µM
[30] = drug pretreatment concentration 40 µM
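Wherever IC25 growth inhibition is given: lowest concentration where monotonic median growth AUC falls below 0.75 of drug-free control.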

Row | SMILES | IC25 growth inhibition [1] | IC25 growth inhibition [2] | IC25 growth inhibition [3] | IC25 growth inhibition [4] | IC25 growth inhibition [5] | IC25 growth inhibition [6] | IC25 growth inhibition [7] | IC25 growth inhibition [8] | IC25 growth inhibition [9] | IC25 growth inhibition [10] | IC25 growth inhibition [11] | IC25 growth inhibition [12] | IC25 growth inhibition [13] | IC25 growth inhibition [14] | IC25 growth inhibition [15] | IC25 growth inhibition [16] | IC25 growth inhibition [17] | IC25 growth inhibition [18] | IC25 growth inhibition [19] | IC25 growth inhibition [20] | IC25 growth inhibition [21] | IC25 growth inhibition [22] | IC25 growth inhibition [23] | IC25 growth inhibition [24] | community biomass OD578 [25, 26] | community biomass OD578 [25, 27] | community biomass OD578 [25, 28] | community biomass OD578 [25, 29] | community biomass OD578 [25, 30] | community biomass OD578 ([25]; drug pretreatment concentration 80 µM) | community biomass OD578 ([25]; drug pretreatment concentration 160 µM)
1 | Clc1ccccc1C(c1ccccc1)(c1ccccc1)n1ccnc1 [Clotrimazole] | > 80 µM | > 80 µM | ≤ 80 µM | ≤ 5 µM | ≤ 40 µM | > 80 µM | > 80 µM | ≤ 80 µM | ≤ 20 µM | ≤ 80 µM | ≤ 20 µM | ≤ 10 µM | > 20 µM | > 40 µM | > 40 µM | ≤ 40 µM | ≤ 10 µM | > 80 µM | ≤ 80 µM | ≤ 80 µM | ≤ 10 µM | ≤ 40 µM | > 80 µM | > 80 µM | 0.969 | 0.989 | 1.03 | 1 | 0.976 | – | –
2 | CC(=O)Oc1cccc2c1C(=O)c1c(OC(C)=O)cc(C(=O)O)cc1C2=O [Diacerein] | ≤ 10 µM | ≤ 10 µM | ≤ 5 µM | ≤ 20 µM | ≤ 2.5 µM | ≤ 20 µM | > 160 µM | ≤ 2.5 µM | ≤ 10 µM | ≤ 2.5 µM | ≤ 10 µM | < 1.25 µM | ≤ 160 µM | > 160 µM | ≤ 10 µM | < 1.25 µM | < 1.25 µM | > 160 µM | ≤ 2.5 µM | ≤ 2.5 µM | < 1.25 µM | ≤ 2.5 µM | > 160 µM | ≤ 40 µM | – | – | 0.936 | 0.913 | 0.728 | 0.337 | 0.284
3 | O=c1oc2ccccc2c(O)c1Cc1c(O)c2ccccc2oc1=O [Dicumarol] | ≤ 20 µM | ≤ 10 µM | ≤ 20 µM | > 80 µM | ≤ 40 µM | ≤ 20 µM | > 80 µM | ≤ 20 µM | ≤ 80 µM | > 80 µM | ≤ 40 µM | > 80 µM | > 80 µM | > 40 µM | ≤ 80 µM | ≤ 80 µM | > 80 µM | > 80 µM | ≤ 20 µM | ≤ 80 µM | > 80 µM | > 80 µM | > 80 µM | ≤ 80 µM | 0.966 | 0.965 | 0.958 | 0.956 | 0.962 | – | –
4 | C/C=C(/C(=C/C)c1ccc(O)cc1)c1ccc(O)cc1 [Dienestrol] | ≤ 40 µM | > 40 µM | ≤ 40 µM | ≤ 10 µM | ≤ 40 µM | ≤ 20 µM | > 40 µM | ≤ 40 µM | ≤ 5 µM | > 40 µM | ≤ 40 µM | ≤ 40 µM | > 40 µM | > 40 µM | > 40 µM | ≤ 40 µM | ≤ 20 µM | > 40 µM | ≤ 10 µM | ≤ 20 µM | ≤ 10 µM | > 40 µM | > 40 µM | ≤ 40 µM | 0.981 | 1.03 | 0.997 | 0.972 | 0.894 | – | –
